The record followed here is patent US8901146B2, “Aminoalkylpyrimidine derivatives as histamine H4 receptor antagonists” (Medicis Pharmaceutical Corporation, priority 2009, dated 2014).

The subject of the experiment is Male BALB/c mice. The experiment in a line: Murine atopic dermatitis model by multiple oxazolone challenges. The class given is in vivo. To be noted: result in words. As for the experimental part: Murine Atopic Dermatitis Model by Multiple Oxazolone Challenges
Method: Male BALB/c mice (n=5-7 per group) were sensitised on Day 1 by the topical application of 50 μL of 1% oxazolone in acetone/olive oil (4:1) on the abdominal skin. On days 8, 10, 12, 15, 17, 19, 22, 24 and 26, animals received repeated challenges with 25 μL of 0.2% oxazolone, applied topically on the inner side of their right ear. On days 8-26, 25 μL of a solution of the test compound (prepared by dissolving compound in acetone/olive oil 4:1 and heating) at the desired concentration were administered on the outer side of the right ears. On days 12, 19 and 26, right ear thickness was determined with a calliper one hour after oxazolone application.

`CNC1CN(c2cc(CNCC3CC3)nc(N)n2)C1` [Example 1b, 4-((Cyclopropylmethylamino)methyl)-6-(3-(methylamino)azetidin-1-yl)pyrimidin-2-amine]: the “in vivo activity in the atopic dermatitis model of example 10” value is reported as “outstanding in vivo activity”.
On to `CNC1CN(c2cc(CNC3CCCC3)nc(N)n2)C1` [Example 1t, 4-((Cyclopentylamino)methyl)-6-(3-(methylamino)azetidin-1-yl)pyrimidin-2-amine], for which the “in vivo activity in the atopic dermatitis model of example 10” value is “outstanding in vivo activity”.
